Measurements taken from article PMC8041304, “Halogen Atoms in the Protein–Ligand System. Structural and Thermodynamic Studies of the Binding of Bromobenzotriazoles by the Catalytic Subunit of Human Protein Kinase CK2” (The Journal of Physical Chemistry. B, 2021).
Where “and” joins values, the source holds several entries; their conditions need not be identical. Equal entries are not always repeated. Where two headings read alike, the source gives them in different places.

Tests used:
[1] = target: T1, hCK2α (Homo sapiens, UniProt P68400); parameters: method as in PMID 23155426; details: pH 7.5; cited from earlier work
T1 construct: made in house
T1 sequence (P68400 whole entry): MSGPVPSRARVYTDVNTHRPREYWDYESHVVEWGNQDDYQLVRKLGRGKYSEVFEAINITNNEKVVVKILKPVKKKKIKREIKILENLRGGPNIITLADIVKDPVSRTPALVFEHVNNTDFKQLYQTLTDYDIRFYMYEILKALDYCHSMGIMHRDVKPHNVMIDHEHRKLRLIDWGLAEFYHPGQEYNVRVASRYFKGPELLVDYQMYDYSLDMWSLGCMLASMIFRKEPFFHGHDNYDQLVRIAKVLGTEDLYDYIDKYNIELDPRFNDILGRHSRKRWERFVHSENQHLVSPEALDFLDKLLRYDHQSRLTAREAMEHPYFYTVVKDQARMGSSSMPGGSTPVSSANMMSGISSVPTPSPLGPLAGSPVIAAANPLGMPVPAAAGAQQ

[2] = target: T1, hCK2α; assay: Isothermal titration calorimetry (MicroCal iTC200), reverse titration; format: binding; details: for ΔGbind, free energy of binding: ITC; for ΔSrt, entropic term for loss of ligand rotational and translational degrees of freedom: calculated from ligand molecular mass; for Ts, temperature at which the entropy change upon ligand binding is zero: estimated from the linear fit of ΔS(T); for ΔSHE(Ts), hydrophobic-effect contribution to the entropy change upon binding: ≈ 1.35∙ΔCp,bind∙ln(Ts/386)
Protocol: ITC measurements were carried out using the MicroCal iTC200 (Malvern) calorimeter. The hCK2α samples were diluted to the required protein concentration with the 25 mM Tris-HCl pH 8 buffer containing 0.5 M NaCl. Stock ligand solutions were diluted with the appropriate DMSO volume prior to mixing with the buffer to obtain the required ligand concentration and a final DMSO content of 1%. Due to the limited solubility of halogenated benzotriazoles, all titration experiments were performed in the reverse mode, in which buffered ligand solution was placed in the calorimetric cell and titrated with the protein solution.[35]
(§1) In all experiments the maximum ligand concentration of 10 μM was used to minimize a possible contribution of the secondary binding site.

[3] = Density measurements: partial molar volume and thermal expansivity of the solute; format: physicochemical; details: 50 mM phosphate buffer pH 11; for α2^0, thermal volumetric expansivity of the solute: 20, 25, 30 °C; for V2^0, partial molar volume: 25 °C
Protocol: Partial molar volumes were estimated with a density meter Anton Paar DMA 5000 M at 20, 25, and 30 °C from the concentration–density dependency for compounds dissolved in 50 mM phosphate buffer (pH 11). The experimental procedure and the data analysis method were described previously.[36],[57],[58] The partial molar volume at 25 °C (V2^0) and thermal volumetric expansivity of the solute (α2^0 = ∂V2^0/∂T) were estimated globally from two independent dilution series. The density of pure solvent (d0) was extrapolated individually for each experimental condition (i.e., temperature and buffer preparation). The change of d0 with temperature was further used to determine thermal volumetric expansivity coefficient of the bulk buffer according to the formula α0 = −(∂d0/∂T)/d0.
According to the Lum, Chandler, and Weeks (LCW) theory, the hydrophobic interactions scale for solutes of subnanometer size with the volume of the molecule rather than its surface.[61] We have recently proposed partial molar volume as the extensive parameter to describe both the solute volume and the solute-induced reorganization of the solvation shell.[36],[57],[58],[62],[63] By analyzing density data at three temperatures (20, 25, and 30 °C), we could estimate the partial molar volume of the ligand (V2^0) and the bulk solvent density (d0(T)). We could further separate the thermal expansivity coefficient of the bulk solvent (α0) and the apparent expansivity of the solute (α2^0). The latter parameter is comprised mainly of the thermal expansion effect of the hydration shell. The values of α0 fell within the narrow range of (26.9 ± 1.3) × 10^–5 K^–1, which is close to the literature data for water (25.72 × 10^–5 K^–1 at 25 °C).[64] […] The solute thermal expansivity (α2^0), together with the change of isobaric heat capacity upon ligand binding (ΔCp,bind), has already been associated with the properties of the solvation layer.[65],[66] Importantly, α2^0 is proportional to the partial molar volume V2^0 (Figure 3D). So, V2^0 may be another descriptor of hydrophobic interactions. Consequently, the volume-normalized solute expansivity coefficient (α = α2^0/V2^0) is almost the same for all studied bromobenzotriazoles (232 ± 22 × 10^–5 K^–1). Importantly, this value substantially exceeds the thermal expansivity coefficient of the bulk buffer (α0 = 26.9 ± 1.3 × 10^–5 K^–1), clearly confirming that water organization changes with temperature more near the solute surface than in the bulk.

[4] = target: T1, hCK2α; parameters: method as in PMID 25891901; details: cited from earlier work
[5] = parameters: method as in PMID 32162783; details: HPLC-derived hydrophobicity; cited from earlier work
[6] = target: T1, hCK2α; assay: Fluorescence-monitored thermal denaturation (nanoDSF) of hCK2α complexes; format: binding; details: protein 2.5 μM, ligand 25 μM; for Tm (°C) at pH 7.5: hCK2α in complex with ligand; for ΔTm (°C) at pH 7.5: unfolding temperature with ligand minus without
Protocol: The samples were loaded into nanoDSF grade Standard Capillaries (NanoTemper Technologies) and analyzed using the Prometheus NT.48 nanoDSF device (NanoTemper Technologies). Thermal unfolding of the protein was monitored using a linear thermal ramp (1 °C·min^–1; 20–80 °C) with an excitation power of 30%.
This prompted us to measure the thermal stabilities of hCK2α and its complexes at pH 7.5 by fluorescence-monitored thermal denaturation (nanoDSF) (Table 2).

[7] = target: T1, hCK2α; assay: Isothermal titration calorimetry (NanoITC); format: binding; details: pH 8
Protocol: as §1

[8] = parameters: method as in doi:10.1016/j.molliq.2019.111527; details: calculated water–octanol partition coefficient; cited from earlier work
[9] = target: T1, hCK2α; parameters: method as in PMID 32162783; details: cited from earlier work
[10] = parameters: method as in PMID 22632480; details: pH 8.0; cited from earlier work
[11] = target: T1, hCK2α; parameters: method as in earlier work; details: ref 6 (of the supplement); read-out: KATP, dissociation constant of ATP; cited from earlier work
[12] = iTC200, 15 °C, pH 8, independent experiments separately evaluated
[13] = iTC200, 20 °C, pH 8, independent experiments separately evaluated
[14] = iTC200, 25 °C, pH 8, independent experiments separately evaluated
[15] = iTC200, 30 °C, pH 8, independent experiments separately evaluated
[16] = iTC200, 35 °C, pH 8, independent experiments separately evaluated

Row | Structure (SMILES) | IC50 [1] [µM] | ΔGbind, free energy of binding ([2]; 25 °C, pH 8) | ΔSrt, entropic term for loss of ligand rotational and translational degrees of freedom [2] [J∙mol-1∙K-1] | Ts, temperature at which the entropy change upon ligand binding is zero [2] [K] | Kd [2, 12] | Kd [2, 13] | Kd [2, 14] | Kd [2, 15] | Kd [2, 16] | ΔSHE(Ts), hydrophobic-effect contribution to the entropy change upon binding [2] [J∙mol-1∙K-1] | α2^0, thermal volumetric expansivity of the solute [3] [cm^3·mol^–1·K^–1] | V2^0, partial molar volume [3] [cm^3·mol^–1] | ΔTm (°C) at pH 8 [4] [°C] | log(τ) [5] | Tm (°C) at pH 7.5 [6] [°C] | ΔTm (°C) at pH 7.5 [6] [°C] | Kd ([7]; 15 °C) [nM] | ΔG ([7]; 15 °C) [kcal/mol] | ΔH ([7]; 15 °C) [kcal/mol] | log P [8] | further results
1 | Brc1cc2[nH]nnc2c(Br)c1Br [4,5,6-Br3Bt] | 0.38 ± 0.02 | –39.5 ± 0.4 kJ·mol^–1 | -301 | 280 ± 36 | 89 nM and 51 nM | 114 nM and 130 nM | 123 nM and 116 nM | 189 nM and 109 nM | 160 nM and 215 nM | 295 ± 30 | 0.49 ± 0.24 | 156.0 ± 1.0 | 8.4 ± 0.1 | –0.20 | 53.84 ± 0.04 | 8.7 ± 0.1 | 65 ± 13 | -9.49 ± 0.12 | -6.93 ± 0.14 | 2.96 | ΔS ([7]; 15 °C): 37 ± 4 J·mol-1·K-1; Kd ([7]; 20 °C): 81 ± 19 nM; ΔG ([7]; 20 °C): -9.51 ± 0.14 kcal/mol; ΔH ([7]; 20 °C): -7.43 ± 0.22 kcal/mol; ΔS ([7]; 20 °C): 30 ± 5 J·mol-1·K-1; Kd ([7]; 25 °C): 42 ± 17 nM; ΔG ([7]; 25 °C): -10.1 ± 0.239 kcal/mol; ΔH ([7]; 25 °C): -9.46 ± 0.311 kcal/mol; ΔS ([7]; 25 °C): 9 ± 4 J·mol-1·K-1; Kd ([7]; 30 °C): 96 ± 17 nM; ΔG ([7]; 30 °C): -9.73 ± 0.12 kcal/mol; ΔH ([7]; 30 °C): -11.2 ± 0.287 kcal/mol; ΔS ([7]; 30 °C): -21 ± 6 J·mol-1·K-1; Kd ([7]; 35 °C): 217 ± 94 nM; ΔG ([7]; 35 °C): -9.39 ± 0.263 kcal/mol; ΔH ([7]; 35 °C): -13.5 ± 1.46 kcal/mol; ΔS ([7]; 35 °C): -56 ± 23 J·mol-1·K-1
2 | Clc1c(Br)c(Br)c(Cl)c2[nH]nnc12 [5,6-Br2-4,7-Cl2Bt] | – | – | – | – | – | – | – | – | – | – | – | – | – | – | – | – | – | – | – | – | affinity to hCK2α among the four isomeric dibromo–dichlorobenzotriazoles [9]: highest affinity
3 | Brc1cc2nn[nH]c2cc1Br [5,6-Br2Bt, 5,6-bromobenzotriazole] | 0.56 ± 0.02 | –40.9 ± 0.3 kJ·mol^–1 | -291 | 268 ± 42 | – | 32 nM and 33 nM | 50 nM and 27 nM | 84 nM and 69 nM | 108 nM and 115 nM | 291 ± 34 | 0.33 ± 0.14 | 150.0 ± 0.6 | 7.4 ± 0.1 | –0.30 | 52.96 ± 0.05 | 7.8 ± 0.1 | 59 ± 49 | -9.54 ± 0.478 | -13.5 ± 1.12 | 2.36 | fraction of the ligand that is neutral [10]: 0.08; ΔS ([7]; 15 °C): -58 ± 18 J·mol-1·K-1; Kd ([7]; 20 °C): 60 ± 54 nM; ΔG ([7]; 20 °C): -9.7 ± 0.526 kcal/mol; ΔH ([7]; 20 °C): -14.8 ± 1.34 kcal/mol; ΔS ([7]; 20 °C): -73 ± 21 J·mol-1·K-1; Kd ([7]; 25 °C): 46 ± 26 nM; ΔG ([7]; 25 °C): -10 ± 0.335 kcal/mol; ΔH ([7]; 25 °C): -16.9 ± 0.765 kcal/mol; ΔS ([7]; 25 °C): -97 ± 12 J·mol-1·K-1; Kd ([7]; 30 °C): 150 ± 120 nM; ΔG ([7]; 30 °C): -9.44 ± 0.454 kcal/mol; ΔH ([7]; 30 °C): -18.3 ± 0.693 kcal/mol; ΔS ([7]; 30 °C): -122 ± 11 J·mol-1·K-1; Kd ([7]; 35 °C): 93 ± 49 nM; ΔG ([7]; 35 °C): -9.92 ± 0.311 kcal/mol; ΔH ([7]; 35 °C): -20.8 ± 1.86 kcal/mol; ΔS ([7]; 35 °C): -148 ± 26 J·mol-1·K-1
4 | Brc1ccc2n[nH]nc2c1 [5-BrBt] | 26 ± 3 | –34.4 ± 0.6 kJ·mol^–1 | -277 | 281 ± 152 | 880 nM and 490 nM | 730 nM and 550 nM | 930 ± 280 nM | 1270 nM and 990 nM | 1330 nM and 1890 nM | 120 ± 56 | 0.14 ± 0.20 | 132.7 ± 0.8 | 1.8 ± 0.1 | –0.41 | 47.17 ± 0.02 | 2.0 ± 0.1 | – | – | – | 1.73 | ΔG [2, 14]: -8.22 ± 0.14 kcal/mol and -8.22 ± 0.359 kcal/mol; ΔSother, entropy change assigned to all other processes accompanying ligand binding ([2]; ΔSrt + ΔSHE(Ts) + ΔSother = 0): 157 ± 56 J∙mol-1∙K-1; fraction of the ligand that is neutral [10]: 0.26
5 | Nc1ncnc2c1ncn2[C@@H]1O[C@H](COP(=O)(O)OP(=O)(O)OP(=O)(O)O)[C@@H](O)[C@H]1O [ATP] | – | – | – | – | – | – | – | – | – | – | – | – | – | – | – | – | – | – | – | – | Kd [11]: 4300 ± 1800 nM
